Results reported in ChEMBL document CHEMBL3987221, “The Australian National University Dept Of Immunology Pathogen Box Compounds Screened” (2018).
Active and inactive are the calls of the source. The rule behind the calls is not given here.

Tests used:
[1] = target: T1, Ferrochelatase, mitochondrial (Homo sapiens) (UniProt P22830); settings: at 10 µM
T1 sequence (whole entry): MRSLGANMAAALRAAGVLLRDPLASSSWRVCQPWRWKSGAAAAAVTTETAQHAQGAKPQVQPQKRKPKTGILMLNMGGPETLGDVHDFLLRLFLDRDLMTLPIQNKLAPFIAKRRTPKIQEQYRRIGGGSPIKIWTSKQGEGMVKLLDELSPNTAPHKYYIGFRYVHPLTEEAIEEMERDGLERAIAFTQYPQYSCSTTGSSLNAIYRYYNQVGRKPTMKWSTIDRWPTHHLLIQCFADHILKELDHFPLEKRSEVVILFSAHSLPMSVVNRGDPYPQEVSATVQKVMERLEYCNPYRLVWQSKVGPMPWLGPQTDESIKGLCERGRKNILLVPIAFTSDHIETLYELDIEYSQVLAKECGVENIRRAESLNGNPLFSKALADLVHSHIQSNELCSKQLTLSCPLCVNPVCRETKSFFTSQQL
Description: Compound was evaluated for the inhibition of human FECH at 10uM

[2] = target: T2, Porphobilinogen deaminase (Homo sapiens) (UniProt P08397); settings: at 100 µM
T2 sequence (whole entry): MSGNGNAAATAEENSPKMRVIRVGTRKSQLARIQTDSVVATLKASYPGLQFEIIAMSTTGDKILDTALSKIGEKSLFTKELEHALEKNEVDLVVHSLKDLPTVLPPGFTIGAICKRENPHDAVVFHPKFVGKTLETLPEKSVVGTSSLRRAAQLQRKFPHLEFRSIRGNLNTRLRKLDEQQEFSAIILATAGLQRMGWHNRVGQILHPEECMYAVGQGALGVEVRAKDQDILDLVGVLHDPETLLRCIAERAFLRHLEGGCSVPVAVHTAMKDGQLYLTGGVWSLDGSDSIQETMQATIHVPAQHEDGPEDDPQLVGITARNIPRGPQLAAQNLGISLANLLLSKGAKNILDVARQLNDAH
Description: Compound was evaluated for the inhibition of human HMBS at 100uM

Row | SMILES | inhibition [1] | inhibition [2]
1 | CO[C@H]1/C=C\O[C@@]2(C)Oc3c(C)c(O)c4c(O)c(/c(=C/NN5CCN(C)CC5)c(O)c4c3C2=O)=N\C(=O)/C(C)=C\C=C/[C@H](C)[C@H](O)[C@@H](C)[C@@H](O)[C@@H](C)[C@H](OC(C)=O)[C@@H]1C | inactive | inactive
2 | CCOC(=O)NC(=O)c1ccsc1NC(=O)c1nc2ccccc2s1 | inactive | inactive
3 | COc1cncc(-c2cncc(N3CCN(c4ccncc4)CC3)n2)c1 | inactive | inactive
4 | COc1cc(NC(C)CCCN)c2ncccc2c1 (stereo unspecified) | inactive | inactive
5 | C[C@]1(COc2ccc(N3CCC(Oc4ccc(OC(F)(F)F)cc4)CC3)cc2)Cn2cc([N+](=O)[O-])nc2O1 | inactive | inactive
6 | Cc1nnc(NC(=O)c2cn(-c3ccccc3)nc2-c2ccccc2C)o1 | inactive | inactive
7 | Nc1ncnc2[nH]nc(Cc3cccc4ccccc34)c12 | inactive | inactive
8 | CN1CCN(S(=O)(=O)c2ccc(-c3ccc4c(Nc5ccc6nn[nH]c6c5)ccnc4c3)cc2)CC1 | inactive | inactive
9 | CCc1c(C)nc(-n2nc(C)cc2NC(=O)c2ccccc2SC)[nH]c1=O | inactive | inactive
10 | C[C@@H]1[C@H](O)[C@@H](C)/C=C/C=C/C=C/C=C/C=C/C=C/C=C/[C@H](O[C@@H]2O[C@H](C)[C@@H](O)[C@H](N)[C@@H]2O)C[C@@H]2O[C@](O)(C[C@@H](O)C[C@@H](O)[C@H](O)CC[C@@H](O)C[C@@H](O)CC(=O)O[C@H]1C)C[C@H](O)[C@H]2C(=O)O | inactive | inactive
11 | CCCn1nnc(NC(=O)COc2ccc(C3CCCCC3)cc2)n1 | inactive | inactive
12 | Clc1ccc(-n2cc(COc3ccnc4ccccc34)nn2)cc1 | inactive | inactive
13 | N=C(N)Nc1ccc(-c2ccc(-c3ccc(N=C(N)N)c(Cl)c3)o2)cc1Cl | inactive | inactive
14 | O=C(Nc1cccc(Cl)c1)c1cnc(N2CCN(c3ccncc3)CC2)c(Cl)c1 | inactive | inactive
15 | COc1cccc(-c2nc3c(N4CCCC4)cccc3n2CC2CCCN2)n1 (stereo unspecified) | inactive | inactive
16 | CCc1nc2ccc(Cl)cn2c1C(=O)NCc1ccc(N2CCC(c3ccc(OC(F)(F)F)cc3)CC2)cc1 | inactive | inactive
17 | COc1ccc(-c2cnc3cnc(-c4cccc(OC(C)C)c4)cn23)cc1 | inactive | inactive
18 | COc1ccc(CN2CCOc3ccc(C(C)(O)CN(C)C)cc3C2)cc1C (stereo unspecified) | inactive | inactive
19 | NCC(=O)N1CCn2c(nc(-c3ccccc3)c2Nc2ccc3c(c2)OCO3)C1 | inactive | inactive
20 | CC(C)n1ncc2c(C(=O)NCC(c3cccs3)N3CCOCC3)cc(-c3ccccc3)nc21 (stereo unspecified) | inactive | inactive
21 | Brc1c(-c2ccc3c(c2)OCO3)nc2ncccn12 | inactive | inactive

Row | SMILES | inhibition [1] | inhibition [2]
22 | Cc1nc(-c2cccc(NCc3ccccc3)c2)[nH]c1C | inactive | inactive
23 | CCN(CC)C(=O)N1CCN(C)CC1 | inactive | inactive
24 | COc1cccc(NC(=O)c2c(NC(=O)c3cccnc3)sc3c2CCC3)c1 | inactive | inactive
25 | COc1cc(C2=NCCN2)ccc1-n1cc(-c2cccc(C3=NCCN3)c2)nn1 | inactive | inactive
26 | CS(=O)(=O)c1ccc(C(=O)N(CC2CCCO2)c2nc3ccccc3s2)cc1[N+](=O)[O-] (stereo unspecified) | inactive | inactive
27 | Cc1nc2ccccn2c1C(=O)NCc1ccc(Cl)cc1 | inactive | inactive
28 | CNC(=O)c1cc(S(=O)(=O)N2CCN(c3ccccn3)CC2)cs1 | inactive | inactive
29 | Cc1ccc(S(=O)(=O)n2cc(-c3ccnc(N)c3)c3cc(Br)cnc32)cc1 | inactive | inactive
30 | COc1cc(Br)cc2cc(C(=O)Nc3cccc(C(F)(F)F)c3)c(=O)oc12 | inactive | inactive
31 | CCn1cnc2c(Nc3cc(F)cc(F)c3)nc(C#N)nc21 | inactive | inactive
32 | COc1ccc(-c2cnc3ccc(N4CCCC4)nn23)cc1OC | inactive | inactive
33 | O=C(NC1CC1)c1ccc(N2CCC(Cc3ccccc3)CC2)nc1 | inactive | inactive
34 | CO/C=C(/C(=O)OC)c1ccccc1Oc1cc(Oc2ccccc2C#N)ncn1 | inactive | inactive
35 | CC(C)(C)n1nc(Cc2ccc(F)c(Cl)c2)c2c(N)ncnc21 | inactive | inactive
36 | Cc1ccc(NC(=O)c2cc(S(=O)(=O)NC(C)(C)C)ccc2C)nc1 | inactive | inactive
37 | Cc1cc(OCC(=O)NCc2ccccc2)c2cc(Br)ccc2n1 | inactive | inactive
38 | O=C1Nc2ccc(Br)cc2C12NCCc1c2[nH]c2ccccc12 (stereo unspecified) | inactive | inactive
39 | Clc1cccc(C(c2ccc(CN3CCNCC3)cc2)n2ccnc2)c1 (stereo unspecified) | inactive | inactive
40 | N=C(N)c1ccc(-c2cc(-c3ccccc3)on2)cc1 | inactive | inactive
41 | O=C(NCc1nnc2n1CCCCC2)c1ccc(-c2ccc(F)cc2)o1 | inactive | inactive
42 | c1ccc(Oc2ccc(-c3cc(C4CCOCC4)[nH]n3)cc2)cc1 | inactive | inactive

Row | SMILES | inhibition [1] | inhibition [2]
43 | O=C(Nc1cccc(-c2ccc(NCCCN3CCCC3)nc2)c1)c1ccccc1 | inactive | inactive
44 | Nc1nccc2ccc(-c3ccc4nccn4c3)cc12 | inactive | inactive
45 | O=C(Nc1ccc2c(c1)B(O)OC2)c1ccccc1C(F)(F)F | inactive | inactive
46 | Cc1cc(C(=O)Nc2cnn(Cc3ccc(Cl)cc3Cl)c2)no1 | inactive | inactive
47 | Cc1ccc(C(=O)Nc2ccc(S(=O)(=O)O)c3cc(S(=O)(=O)O)cc(S(=O)(=O)O)c23)cc1NC(=O)c1cccc(NC(=O)Nc2cccc(C(=O)Nc3cc(C(=O)Nc4ccc(S(=O)(=O)O)c5cc(S(=O)(=O)O)cc(S(=O)(=O)O)c45)ccc3C)c2)c1 | inactive | inactive
48 | Nc1nc(N)c2c3c(sc2n1)CN(Cc1ccccc1)CC3 | inactive | inactive
49 | CCN(CC)CCCCCCNc1cc(OC)cc2c(C)ccnc12 | inactive | inactive
50 | CCCNC(=O)N1CCC2(CC1)CC(=O)c1cc(C)ccc1O2 | inactive | inactive
51 | N=C(N)Nc1ccc(-c2ccc(-c3ccc(NC(=N)N)cc3Cl)o2)c(Cl)c1 | inactive | inactive
52 | Cc1ccc(Oc2ccc(NC(=O)CNc3ccccc3N3CCCC3=O)cc2)cc1 | inactive | inactive
53 | CCNC(=O)C(C)Nc1nc(-c2cccnc2)nc2sc(C)c(C)c12 (stereo unspecified) | inactive | inactive
54 | NCCCC(N)(C(=O)O)C(F)F (stereo unspecified) | inactive | inactive
55 | CC(C)(C)CN1C(=O)C(c2ccccc2)(c2ccccc2)N=C1N | inactive | inactive
56 | Cc1ccc(S(=O)(=O)N2CCN(C(=O)c3cc(-c4ccccc4)n[nH]3)CC2)cc1 | inactive | inactive
57 | NC(=O)c1cc(-c2ccsc2)ccc1OCCOc1ccccc1 | inactive | inactive
58 | CCOc1ccccc1NC(C)C(=O)Nc1cc(C(F)(F)F)ccc1N1CCOCC1 (stereo unspecified) | inactive | inactive
59 | N#Cc1nc(-c2ccccc2F)oc1NCCc1ccccc1 | inactive | inactive
60 | Cn1ncc2c(N3CCOCC3)nc(NCCc3c[nH]c4ccccc34)nc21 | inactive | inactive
61 | COc1ccc(C2CC(c3cccs3)=NN2C(=O)c2ccco2)cc1OC (stereo unspecified) | inactive | inactive
62 | CCN(CC)CCCN1CCN(C(=O)c2cccc(-c3noc(C(F)(F)F)n3)c2)CC1 | inactive | inactive
63 | COc1ccc(Oc2ccc([C@@H](C)N(C)c3ncc4c(N)nc(N)nc4n3)cc2)cc1 | inactive | inactive
